Assay [1] deals with enzymatically isolated leaf cuticles of the top face of pear leaves. Put plainly: Desorption test: influence of additives on tracer mobility in the cuticle (penetration enhancer / plasticizer effect). From the text:
Additives which act as penetration enhancers at the level of the cuticle may be referred to below as accelerator additives (cf. Schönherr and Baur, 1994, Pesticide Science 42, 185-208). The feature of accelerator additives is their ability to penetrate from the aqueous spray liquor and/or from the spray covering into the cuticle and thereby to increase the mobility of the active compounds in the cuticle. Other additives such as polyethylene glycol, in contrast, only act on the spray covering (via the liquid phase) or act only as wetting agents, such as, for example, sodium dodecylsulphate.
This test determines the influence of additives on the penetration properties of other substances at the level of the cuticle. The mobility of a test substance in the cuticle is measured with and without an additive, by way of a desorption method. The method is published in detail in the literature (Baur et al., 1997, Pesticide Science, 51, 131-152) and only the principles and any deviations are described below.
As a test substance with the function of a tracer a selection was made here of a radiolabelled weak organic acid. Plant material used comprises the enzymatically isolated leaf cuticles of the top face of pear leaves from outdoor trees. […] This inner side readily takes up the small radioactive amount of the tracer in the undissociated acid form. […]

For assay [2], the system named is primary leaves of barley seedlings. The assay can be described thus: Retention test of spray liquor on poorly wettable leaf. The procedure:
Retention is to be understood as meaning the adherence of spray mists to surfaces, for example plants or plant parts (leaves), after spray application. The retention depends both on the composition of the spray liquor and on the nature of the treated surface. The retention of a spray liquor (aqueous solution of the stated additive) was determined using a poorly wettable leaf in comparison to a reference surface with complete retention. The reported results were obtained using primary leaves of barley seedlings which had been cultivated in a greenhouse (18° C., 80% atmospheric humidity, 16 h of light). Individual cut leaves were subjected to standard treatment in a spray cabin using a track sprayer-flat-jet nozzle: XR 11002 VS; pressure: 3 bar; […]. Weight and leaf area were determined prior to the treatment, and the adhering spray coating was correspondingly determined gravimetrically and normalized to leaf area. A nonwoven-fabric paper cloth serves as reference surface for 100% retention. Per spray liquor variant, at least 5 individual leaves were treated, and the calculated retentions were then averaged. A test series where pure tap water as spray liquor was sprayed onto the barley seedling leaves was carried out as negative control (lowest retention).

One compound from patent US20080318791A1, “Use of Lactate Esters for Improving the Action of Agricultural Pesticides” (Bayer Cropscience Aktiengesellschaft, priority 2005, published 2008) can be followed below.

For `CCCCC(CC)COC(=O)C(C)O` (centres unmarked) [2-Ethylhexyl lactate], in assay [1] (Table 1), the “Effectiveness as cuticle plasticizer (in words)” value is “very effective as a plasticizer”. In assay [1] (additive concentration 1 g/l, radiolabelled weak organic acid tracer), the “Mean effect (ratio of desorption slopes with additive to without additive)” value amounted to 45. Also, the “Effect on retention (in words)” value in assay [2] (0.3 g/l) was “increased the retention considerably”. In addition, the Retention in assay [2] (additive 0.3 g/l in water, 100% = nonwoven-fabric paper cloth) is on record as 60.6%; in assay [2] (additive 3 g/l + 0.2 g/l Pluronic PE 10500 emulsifier), 61%.
